Assay results from publication PMC10593844, “Structure-function analyses reveal key molecular determinants of HIV-1 CRF01_AE resistance to the entry inhibitor temsavir” (Nature Communications, 2023).
Where “and” joins values, the source holds several entries; their conditions need not be identical. Identical values can stand only once. Like-named read-outs stand apart in the source and are kept apart here.

How the values were obtained:
[1] = tested on: HIV-1JR-FL Env WT on HEK293T cells; type: binding; settings: JRFL WT; temsavir 10 µM; listed as TMR
[2] = tested on: CRF01_AE 92TH023 Env LMHS on HEK293T cells; type: binding; settings: 92TH023 LMHS; temsavir 10 µM; listed as TMR
[3] = tested on: HIV-1 pseudovirus bearing EnvJR-FL WT; test: organism not typed; type: cell-based; settings: for Relative infectivity (%): JRFL WT
[4] = tested on: HIV-1 pseudovirus bearing EnvJR-FL S375Y; test: organism not typed; type: cell-based; settings: for Relative infectivity (%): JRFL S375Y
[5] = tested on: CRF01_AE 92TH023 Env H375T on HEK293T cells; type: binding; settings: 92TH023 H375T; temsavir 10 µM; listed as TMR
[6] = tested on: clade B YU2 Env LMSH on HEK293T cells; type: binding; settings: temsavir 10 µM, listed as TMR
[7] = tested on: HIV-1 pseudovirus bearing EnvJR-FL S375T; test: organism not typed; type: cell-based; settings: for Relative infectivity (%): JRFL S375T
[8] = tested on: HIV-1 pseudovirus bearing EnvJR-FL S375W; test: organism not typed; type: cell-based; settings: for Relative infectivity (%): JRFL S375W
[9] = tested on: CRF01_AE CM244 Env LM+HS on HEK293T cells; type: binding; settings: temsavir 10 µM, listed as TMR
[10] = tested on: HIV-1JR-FL Env S375Y on HEK293T cells; type: binding; settings: JRFL S375Y; temsavir 10 µM; listed as TMR
[11] = tested on: HIV-1JR-FL Env S375W on HEK293T cells; type: binding; settings: JRFL S375W; temsavir 10 µM; listed as TMR
[12] = tested on: HIV-1JR-FL Env S375T on HEK293T cells; type: binding; settings: JRFL S375T; temsavir 10 µM; listed as TMR
[13] = tested on: HIV-1 pseudovirus bearing clade B YU2 Env LM+SH; test: organism not typed; type: cell-based; settings: for Relative infectivity (%): YU2 LM+SH
[14] = tested on: HIV-1 pseudovirus bearing EnvJR-FL S375H; test: organism not typed; type: cell-based; settings: for Relative infectivity (%): JRFL S375H
[15] = tested on: HIV-1 pseudovirus bearing CRF01_AE CM244 Env LMHS; test: organism not typed; type: cell-based; settings: for Relative infectivity (%): CM244 LMHS
[16] = tested on: HIV-1 pseudovirus bearing clade B YU2 Env WT; test: organism not typed; type: cell-based; settings: for Relative infectivity (%): YU2 WT
[17] = tested on: panel of 208 HIV-1 Envs from different clades; settings: cited from earlier work; for IC50: read-out: Neutralization IC50
HIV-1 Env with Ile475 = tested on: HIV-1 Env with Ile475; parameters: method as in PMID 28825711; settings: Ile475 substitution; cited from earlier work
[18] = tested on: CRF01_AE 92TH023 Env WT on HEK293T cells; type: binding; settings: 92TH023 WT; temsavir 10 µM; listed as TMR
[19] = biological target: T1, clade B YU2 Env S375H on HEK293T cells (Human immunodeficiency virus type 1 group M subtype B, UniProt P35961, S370H); type: binding; settings: temsavir 10 µM, listed as TMR
T1 construct: expressed in transfected cells; host or cells: HEK293T (pSVIIIenv co-transfected with a Tat expressor)

[20] = tested on: HIV-1 pseudovirus bearing CRF01_AE CM244 Env WT; test: organism not typed; type: cell-based; settings: for Relative infectivity (%): CM244 WT
[21] = biological target: T2, clade B YU2 Env S375T on HEK293T cells (Human immunodeficiency virus type 1 group M subtype B, UniProt P35961, S370T); type: binding; settings: temsavir 10 µM, listed as TMR
T2 construct: expressed in transfected cells; host or cells: HEK293T (pSVIIIenv co-transfected with a Tat expressor)

[22] = tested on: HIV-1JR-FL Env S375H on HEK293T cells; type: binding; settings: JRFL S375H; temsavir 10 µM; listed as TMR
[23] = tested on: HIV-1 pseudovirus bearing clade B YU2 Env S375T; test: organism not typed; type: cell-based; settings: for Relative infectivity (%): YU2 S375T

For `COc1cnc(-n2cnc(C)n2)c2[nH]cc(C(=O)C(=O)N3CCN(C(=O)c4ccccc4)CC3)c12` [Temsavir, temsavir], the “sCD4 binding (+TMR) - Fold over DMSO” value [1] was 0.09994 and 0.08955 and 0.1163, the “sCD4 binding (+TMR) - Fold over DMSO” value [2] was 0.3873 and 0.484 and 0.5948 and the IC50 ([3]; Cf2Th-CD4/CCR5) was 0.00036 µM. For the same compound, the “Relative infectivity (%)” value ([3]; Temsavir 0.1 nM) was 88.4413% and 81.9041% and 67.8312%, the “Relative infectivity (%)” value ([3]; Temsavir 5 nM) was 0.09027% and 0.782% and 0.1663% and the “Relative infectivity (%)” value ([3]; Temsavir 25 nM) was 0.07266% and 0.1285% and 0.09925% and 0.3863%. The “Relative infectivity (%)” value ([3]; Temsavir 100 nM) was 0.1307% and 0.3086% and 0.1992% and 0.5674%, the IC50 ([4]; Cf2Th-CD4/CCR5) was > 0.1 µM and the “Relative infectivity (%)” value ([4]; Temsavir 0.1 nM) was 95.0549% and 100.21% and 92.5783%. For the same compound, the “Relative infectivity (%)” value ([4]; Temsavir 0.5 nM) was 93.6966% and 92.3523% and 97.9897%, the “Relative infectivity (%)” value ([4]; Temsavir 1 nM) was 103.494% and 95.9187% and 99.1671% and the “Relative infectivity (%)” value ([4]; Temsavir 5 nM) was 82.1418% and 84.655% and 82.6307%. The “sCD4 binding (+TMR) - Fold over DMSO” value [5] was 0.7474 and 0.9648 and 0.9745, the “sCD4 binding (+TMR) - Fold over DMSO” value [6] was 1.199 and 1.141 and 1.081 and the IC50 ([7]; Cf2Th-CD4/CCR5) was 0.00043 µM. For the same compound, the “Relative infectivity (%)” value ([7]; Temsavir 0.1 nM) was 69.2755% and 98.112% and 68.2496%, the “Relative infectivity (%)” value ([7]; Temsavir 5 nM) was 1.701% and 2.403% and 0.1043% and the “Relative infectivity (%)” value ([7]; Temsavir 25 nM) was 0.2129% and 0.1167% and 0.02715% and 9.3062%. The “Relative infectivity (%)” value ([7]; Temsavir 100 nM) was 0.02755% and 0.0119% and 0.01656% and 2.113%, the IC50 ([8]; Cf2Th-CD4/CCR5) was > 0.1 µM and the “Relative infectivity (%)” value ([8]; Temsavir 0.1 nM) was 99.9863% and 100.025% and 95.7102%. For the same compound, the “Relative infectivity (%)” value ([8]; Temsavir 0.5 nM) was 97.6131% and 107.833% and 88.0394%, the “Relative infectivity (%)” value ([8]; Temsavir 1 nM) was 112.34% and 95.1648% and 85.749% and the “Relative infectivity (%)” value ([8]; Temsavir 5 nM) was 108.208% and 99.6983% and 99.0301%. For the same compound, the “sCD4 binding (+TMR) - Fold over DMSO” value [9] was 0.6661 and 0.4581 and 0.6625, the “sCD4 binding (+TMR) - Fold over DMSO” value [10] was 1.015 and 0.9829 and 1.003 and the “sCD4 binding (+TMR) - Fold over DMSO” value [11] was 1.038 and 0.9906 and 0.8801. The “sCD4 binding (+TMR) - Fold over DMSO” value [12] was 0.1797 and 0.1688 and 0.2064, the IC50 ([13]; Cf2Th-CD4/CCR5) was > 0.1 µM and the “Relative infectivity (%)” value ([13]; Temsavir 1 nM) was 101.627% and 98.3187% and 88.9144%. For the same compound, the “Relative infectivity (%)” value ([13]; Temsavir 5 nM) was 105.436% and 97.7235% and 87.2207%, the “Relative infectivity (%)” value ([13]; Temsavir 10 nM) was 114.432% and 105.33% and 87.5665% and the “Relative infectivity (%)” value ([13]; Temsavir 50 nM) was 115.171% and 108.587% and 70.9415%. The “Relative infectivity (%)” value ([13]; Temsavir 100 nM) was 115.039% and 106.712% and 94.0587%, the IC50 ([14]; Cf2Th-CD4/CCR5) was > 0.1 µM and the “Relative infectivity (%)” value ([14]; Temsavir 0.1 nM) was 97.5172% and 99.7027% and 99.1558%. For the same compound, the “Relative infectivity (%)” value ([14]; Temsavir 0.5 nM) was 94.7921% and 100.166% and 82.7419%, the “Relative infectivity (%)” value ([14]; Temsavir 1 nM) was 92.4628% and 111.302% and 80.2089% and the “Relative infectivity (%)” value ([14]; Temsavir 5 nM) was 89.7935% and 91.5252% and 60.6402%. For the same compound, the “Relative infectivity (%)” value ([14]; Temsavir 25 nM) was 193.211% and 192.383% and 121.78% and 152.325%, the “Relative infectivity (%)” value ([14]; Temsavir 100 nM) was 67.6822% and 45.331% and 44.6004% and 67.6402% and the “Relative infectivity (%)” value ([15]; Temsavir 5 nM) was 5.229% and 3.403% and 2.611%. The “Relative infectivity (%)” value ([15]; Temsavir 10 nM) was 1.16% and 4.177% and 2.605%, the “Relative infectivity (%)” value ([15]; Temsavir 50 nM) was 0.3118% and 0.2016% and 0.39% and the IC50 ([15]; Cf2Th-CD4/CCR5) was 0.0007 µM. The IC50 ([16]; Cf2Th-CD4/CCR5) was 0.00068 µM, the “Relative infectivity (%)” value ([16]; Temsavir 1 nM, Fig 2f) was 27.4498% and 23.3742% and 28.1647% and the “Relative infectivity (%)” value ([16]; Temsavir 2 nM, Fig S1) was 66.79% and 41.21% and 35.57%. The “Relative infectivity (%)” value ([16]; Temsavir 5 nM, Fig 2f) was 1.267% and 2.642% and 1.583%, the “Relative infectivity (%)” value ([16]; Temsavir 5 nM, Fig S1) was 6.29% and 2.61% and 2.85% and the “Relative infectivity (%)” value ([16]; Temsavir 10 nM, Fig 2f) was 0.2419% and 0.2962% and 0.3923%. The “Relative infectivity (%)” value ([16]; Temsavir 10 nM, Fig S1) was 2.59% and 2.79% and 2.69%, the “Relative infectivity (%)” value ([16]; Temsavir 50 nM, Fig 2f) was 0.2461% and 0.2675% and 0.3334% and the “Relative infectivity (%)” value ([16]; Temsavir 50 nM, Fig S1) was 2.66% and 2.72% and 2.93%. The “Relative infectivity (%)” value ([16]; Temsavir 100 nM, Fig 2f) was 0.2542% and 0.2474% and 0.3435%, the “Relative infectivity (%)” value ([16]; Temsavir 100 nM, Fig S1) was 2.55% and 3.03% and 2.93% and the IC50 ([17]; Fig 2a, Env strains with Y61, ref Pancera et al.) was 0.0004 µM. The IC50 ([17]; individual strains with H375) was > 20 µM and 18.1 µM and 4.04 µM and 8.52 µM and 12.7 µM and 4.77 µM and 2.81 µM and 13 µM and 4.13 µM and 5.13 µM, the IC50 ([17]; individual strains with S375) was 0.012 µM and the IC50 ([17]; individual strains, CRF01_AE) was > 20 µM and 18.1 µM and 4.04 µM and 8.52 µM and 12.7 µM and 4.77 µM and 2.81 µM and 13 µM and 4.13 µM and 5.13 µM. For the same compound, the “active against % of a panel of 208 HIV-1 Envs” value ([17]; whole panel, different clades) was 91%, the “fold reduction in temsavir activity” value (HIV-1 Env with Ile475) was ~ 90 fold and the “sCD4 binding (+TMR) - Fold over DMSO” value [18] was 0.9655 and 0.9282 and 0.9905. For the same compound, the “sCD4 binding (+TMR) - Fold over DMSO” value [19] was 1.163 and 1.208 and 0.9124, the “Relative infectivity (%)” value ([20]; Temsavir 1 nM) was 91.0915% and 114.42% and 104.549% and the “Relative infectivity (%)” value ([20]; Temsavir 5 nM) was 80.9718% and 103.03% and 93.7921%. The “Relative infectivity (%)” value ([20]; Temsavir 10 nM) was 79.7783% and 110.299% and 108.245%, the “Relative infectivity (%)” value ([20]; Temsavir 50 nM) was 78.0773% and 106.103% and 90.5088% and the IC50 ([20]; Cf2Th-CD4/CCR5) was > 0.05 µM. The “sCD4 binding (+TMR) - Fold over DMSO” value [21] was 0.6011 and 0.7082 and 0.7739, the “sCD4 binding (+TMR) - Fold over DMSO” value [22] was 1.158 and 1.01 and 1.118 and the IC50 ([23]; Cf2Th-CD4/CCR5) was 0.00073 µM. The “Relative infectivity (%)” value ([23]; Temsavir 1 nM) was 32.779% and 22.5844% and 35.0676%, the “Relative infectivity (%)” value ([23]; Temsavir 5 nM) was 2.479% and 1.401% and 1.77% and the “Relative infectivity (%)” value ([23]; Temsavir 10 nM) was 0.4727% and 0.2789% and 0.1619%. For the same compound, the “Relative infectivity (%)” value ([23]; Temsavir 50 nM) was 0.1346% and 0.1101% and 0.1511% and the “Relative infectivity (%)” value ([23]; Temsavir 100 nM) was 0.1098% and 0.1253% and 0.1727%.
